Laboratory results as given in US20130245355A1, “3-HETARYL-SUBSTITUTED PYRROLO[2,3 B]PYRIDINE DERIVATIVES AS PDK1 INHIBITORS” (MERCK PATENT GMBH, priority 2010, published 2013).

How the values were obtained:
[1] = biological target: T1, PDK1 (Homo sapiens, UniProt O15530); assay: Test for the inhibition of PDK1 (flashplate, 33P-ATP); details: His6-PDK1 (1-50) 3.4 nM, 4 μM ATP, 30° C., 60 min; read-out: IC50 [PDK1] biochemical
T1 construct: His6 (N)
T1 sequence (O15530 51-556 limits assumed): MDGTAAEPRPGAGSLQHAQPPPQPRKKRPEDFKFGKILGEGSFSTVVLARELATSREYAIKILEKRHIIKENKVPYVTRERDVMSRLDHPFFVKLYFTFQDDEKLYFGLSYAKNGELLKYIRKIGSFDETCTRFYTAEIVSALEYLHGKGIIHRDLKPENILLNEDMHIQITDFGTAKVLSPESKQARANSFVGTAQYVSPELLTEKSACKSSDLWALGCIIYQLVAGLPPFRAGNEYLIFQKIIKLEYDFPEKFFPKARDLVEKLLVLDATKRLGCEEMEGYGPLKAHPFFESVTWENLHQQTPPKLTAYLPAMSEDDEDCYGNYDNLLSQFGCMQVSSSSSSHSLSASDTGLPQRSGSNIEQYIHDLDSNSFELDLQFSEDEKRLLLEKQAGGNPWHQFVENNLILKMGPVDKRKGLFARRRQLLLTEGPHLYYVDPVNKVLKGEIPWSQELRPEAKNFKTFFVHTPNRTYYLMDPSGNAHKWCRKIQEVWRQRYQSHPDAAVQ
Method: The experimental batches are carried out in a flashplate system with 384 wells/microtitration plate.
In each case, the PDK1 sample His6-PDK1 (1-50) (3.4 nM), the PDK1 substrate biotin-bA-bA-[…] (400 nM), 4 μM ATP (with 0.2μ Ci of ^33P-ATP/well) and the test substance in 50 μl of conventional experimental solution per well are incubated at 30° C. for 60 min. The test substances are employed in corresponding concentrations (if desired in a dilution series). The control is carried out without test substance. The reaction is stopped using standard methods and washed. The activity of the kinase is measured via the incorporated radioactivity in top count. In order to determine the non-specific kinase reaction (blank value), the experimental batches are carried out in the presence of 100 nM staurosporin.
The radioactivity (decompositions per minute) of the blank value (no use of test substance in the presence of staurosporin) is subtracted from all other radioactivity values. The controls (kinase activity without test substance) are set equal to 100 percent and all other radioactivity values (after subtracting the blank value) are expressed set in relation thereto (for example in % of the control).
IC50 values (50% inhibition) are determined with the aid of statistics programmes, such as, for example, RS1.

[2] = biological target: T2, PDK1 (Homo sapiens, UniProt O15530); assay: Cellular testing of PDK1 kinase inhibitors in PC3 cells (Luminex, phospho-T308-PKB); format: cell-based; details: 30 min, serum-free
T2 construct: endogenous in cells; host or cells: PC3 cells
T2 sequence (O15530 1-556): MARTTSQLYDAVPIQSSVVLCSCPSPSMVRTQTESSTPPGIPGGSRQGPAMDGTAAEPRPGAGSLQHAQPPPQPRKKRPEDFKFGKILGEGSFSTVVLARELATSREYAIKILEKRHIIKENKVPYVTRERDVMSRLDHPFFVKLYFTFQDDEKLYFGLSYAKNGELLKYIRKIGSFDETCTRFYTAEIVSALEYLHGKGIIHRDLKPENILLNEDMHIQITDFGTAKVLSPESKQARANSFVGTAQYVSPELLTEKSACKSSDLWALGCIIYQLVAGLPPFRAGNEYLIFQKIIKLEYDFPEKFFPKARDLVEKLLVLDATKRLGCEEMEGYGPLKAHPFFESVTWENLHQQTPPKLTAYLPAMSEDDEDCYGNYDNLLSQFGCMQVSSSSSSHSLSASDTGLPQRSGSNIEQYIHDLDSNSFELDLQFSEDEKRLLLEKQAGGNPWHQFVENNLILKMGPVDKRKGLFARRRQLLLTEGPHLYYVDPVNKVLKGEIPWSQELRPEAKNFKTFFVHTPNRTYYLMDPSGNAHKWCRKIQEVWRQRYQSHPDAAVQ
Method: Method for the Cellular Testing of PDK1 Kinase Inhibitors in PC3 Cells.
The cellular assay for the determination of the PDK1 kinase activity is carried out as a Luminex assay in the 96-well format. PC3 cells are sown at 20,000 cells per well in 100 μl of medium (45% of […]/45% of Ham's F12/10% of FCS) and incubated on the following day for 30 min with a serial dilution of the test substance (7 concentrations) under serum-free conditions. The cells are subsequently lysed using 90 μl of lysis buffer (20 mM tris/HCl pH 8.0, 150 mM NaCl, 1% of NP40, 10% of glycerol, 1% of phosphatase inhibitor I, 1% of phosphatase inhibitor II, 0.1% of protease inhibitor cocktail III, 0.01% of benzonase) per well, and the lysates are separated off from insoluble cell constituents by means of centrifugation through a 96-well filter plate (0.65 μm). The lysates are incubated overnight at 4° C. with shaking with Luminex beads to which an anti-total PKB antibody is coupled. The detection is carried out on the following day by addition of a phospho-T308-PKB antibody and a species-specific […] secondary antibody. The detection of phospho T308-PKB is carried out by measurement in a Luminex100 instrument by determination of 100 events per cavity in a measurement time of 60 sec. As pharmacological blank, the signals obtained from cells which have been treated with 10 μM staurosporin are subtracted from all other batches. The control value used for maximum phosphorylation of PKB on T308 are the signals from cells which have only been treated with the solvent (0.3% of DMSO). The values of the batches treated with test substance are calculated therefrom as percentage of control, and IC50 values are determined by means of RS 1.

SMILES | IC50 [1] [nM] | IC50 [2] [nM]
Cn1cc(-c2cnc3[nH]cc(-c4nnc(C(O)c5ccccc5Cl)o4)c3c2)cn1 (racemic) [A58] | 0.5 to 1000 | 0.5 to 1000
Cn1cc(-c2cnc3[nH]cc(-c4cc([C@@](C)(O)c5ccccc5)on4)c3c2)cn1 (single isomer, unassigned) [A34] | 0.5 to 1000 | 0.5 to 1000
Cn1cc(-c2cnc3[nH]cc(-c4cc([C@](C)(O)c5ccccc5)on4)c3c2)cn1 (single isomer, unassigned) [A35] | 0.5 to 1000 | 1000 to 10000
Cn1cc(-c2cnc3[nH]cc(-c4cc([C@](C)(O)c5ccccc5F)on4)c3c2)cn1 (single isomer, unassigned) [A55] | 0.5 to 1000 | 0.5 to 1000
Cn1cc(-c2cnc3[nH]cc(-c4cc([C@](C)(O)c5cccc(F)c5)on4)c3c2)cn1 (single isomer, unassigned) [A62] | 0.5 to 1000 | 1000 to 10000
Cn1cc(-c2cnc3[nH]cc(-c4cc([C@](C)(O)c5cccc(F)c5)on4)c3c2)cn1 (single isomer, unassigned) [A63] | 0.5 to 1000 | 1000 to 10000
Cn1cc(-c2cnc3[nH]cc(-c4nnc([C@@H](O)c5ccccc5Cl)o4)c3c2)cn1 (single isomer, unassigned) [A130] | 0.5 to 1000 | 0.5 to 1000
Cn1cc(-c2cnc3[nH]cc(-c4cc(C(C)(O)c5ccccc5)on4)c3c2)cn1 (centres unmarked) [A1, 1-{3-[5-(1-methyl-1H-pyrazol-4-yl)-1H-pyrrolo[2,3-b]pyridin-3-yl]isoxazol-5-yl}-1-phenylethanol] | 0.5 to 1000 | 0.5 to 1000
Cn1cc(-c2cnc3[nH]cc(-c4csc(Cc5ccccc5)n4)c3c2)cn1 [A2, 3-(2-benzyl-thiazol-4-yl)-5-(1-methyl-1H-pyrazol-4-yl)-1H-pyrrolo[2,3-b]pyridine] |  | 1000 to 10000
Cc1sc(Cc2ccccc2)nc1-c1c[nH]c2ncc(-c3cnn(C)c3)cc12 [A3] |  | 1000 to 10000
Cn1cc(-c2cnc3[nH]cc(-c4csc(Cc5ccccc5F)n4)c3c2)cn1 [A4] | 1000 to 10000 | 1000 to 10000
Cn1cc(-c2cnc3[nH]cc(-c4cc(C(C)(O)c5ccccc5F)on4)c3c2)cn1 (centres unmarked) [A6] | 0.5 to 1000 | 0.5 to 1000
Cn1cc(-c2cnc3[nH]cc(-c4csc(Cc5cccc(F)c5)n4)c3c2)cn1 [A7] |  | 1000 to 10000
Cn1cc(-c2cnc3[nH]cc(-c4csc(Cc5cccc(F)c5F)n4)c3c2)cn1 [A9] | 1000 to 10000 | 1000 to 10000
CCC(O)(c1cccc(F)c1)c1cc(-c2c[nH]c3ncc(-c4cnn(C)c4)cc23)no1 (centres unmarked) [A11] | 0.5 to 1000 | 0.5 to 1000
CC(O)(c1cc(-c2c[nH]c3ncc(-c4cnn(CC(=O)N5CCCCC5)c4)cc23)no1)c1ccccc1F (centres unmarked) [A12] | 0.5 to 1000 | 0.5 to 1000
Cn1cc(-c2cnc3[nH]cc(-c4n[nH]c(Cc5cccc(F)c5)n4)c3c2)cn1 [A14, 3-[5-(3-fluorobenzyl)-1H-1,2,4-triazol-3-yl]-5-(1-methyl-1H-pyrazol-4-yl)-1H-pyrrolo[2,3-b]pyridine] | 0.5 to 1000 | 1000 to 10000
Cn1cc(-c2cnc3[nH]cc(-c4n[nH]c(Cc5ccccc5F)n4)c3c2)cn1 [A15] | 0.5 to 1000 | 1000 to 10000
Cn1cc(-c2cnc3[nH]cc(-c4n[nH]c(Cc5cccc(F)c5F)n4)c3c2)cn1 [A16] | 0.5 to 1000 | 0.5 to 1000

SMILES | IC50 [1] [nM] | IC50 [2] [nM]
Cn1cc(-c2cnc3[nH]cc(-c4n[nH]c(Cc5ccccc5)n4)c3c2)cn1 [A17] | 0.5 to 1000 | 1000 to 10000
Cn1cc(-c2cnc3[nH]cc(-c4cc(C(C)(O)c5ccccc5F)[nH]n4)c3c2)cn1 (centres unmarked) [A18] | 0.5 to 1000 | 1000 to 10000
Cn1cc(-c2cnc3[nH]cc(-c4nnc(Cc5cccc(F)c5)o4)c3c2)cn1 [A19, 3-[5-(3-fluorobenzyl)-1,3,4-oxadiazol-2-yl]-5-(1-methyl-1H-pyrazol-4-yl)-1H-pyrrolo[2,3-b]pyridine] | 0.5 to 1000 | 1000 to 10000
Cn1cc(-c2cnc3[nH]cc(-c4nnc(Cc5cccc(F)c5F)o4)c3c2)cn1 [A20] | 0.5 to 1000 | 1000 to 10000
Cn1cc(-c2cnc3[nH]cc(-c4nnc(Cc5ccccc5)o4)c3c2)cn1 [A21] | 0.5 to 1000 | 1000 to 10000
Cn1cc(-c2cnc3[nH]cc(-c4nnc(Cc5ccccc5F)o4)c3c2)cn1 [A22] | 0.5 to 1000 | 0.5 to 1000
Cn1cc(-c2cnc3[nH]cc(-c4noc(C(O)c5ccccc5)n4)c3c2)cn1 (centres unmarked) [A23] | 0.5 to 1000 | 1000 to 10000
CC(O)(c1cc(-c2c[nH]c3ncc(-c4cnn(CCO)c4)cc23)no1)c1ccccc1F (centres unmarked) [A24] | 0.5 to 1000 | 0.5 to 1000
CCC(O)(c1cc(-c2c[nH]c3ncc(-c4cnn(C)c4)cc23)no1)c1ccccc1F (centres unmarked) [A25] | 0.5 to 1000 | 0.5 to 1000
Cn1cc(-c2cnc3[nH]cc(-c4noc(C(=O)c5ccccc5)n4)c3c2)cn1 [A27] |  | 1000 to 10000
C=C(c1cc(-c2c[nH]c3ncc(-c4cnn(C)c4)cc23)n[nH]1)c1ccccc1F [A28] | 0.5 to 1000 | 1000 to 10000
Cn1cc(-c2cnc3[nH]cc(-c4nnc(C(O)c5ccccc5)o4)c3c2)cn1 (centres unmarked) [A29] | 0.5 to 1000 | 1000 to 10000
Cn1cc(-c2cnc3[nH]cc(-c4noc(C(C)(O)c5ccccc5)n4)c3c2)cn1 (centres unmarked) [A31] | 0.5 to 1000 | 0.5 to 1000
Cn1cc(-c2cnc3[nH]cc(-c4cc(C(C)(O)c5cccc(F)c5)on4)c3c2)cn1 (centres unmarked) [A36] | 0.5 to 1000 | 0.5 to 1000
Cn1cc(-c2cnc3[nH]cc(-c4cc(C(C)(O)c5cccc(F)c5)[nH]n4)c3c2)cn1 (centres unmarked) [A37, 1-(3-fluorophenyl)-1-{5-[5-(1-methyl-1H-pyrazol-4-yl)-1H-pyrrolo[2,3-b]pyridin-3-yl]-2H-pyrazol-3-yl}ethanol] | 0.5 to 1000 | 0.5 to 1000
Cn1cc(-c2cnc3[nH]cc(-c4n[nH]c(C(=O)c5ccccc5)n4)c3c2)cn1 [A39] | 1000 to 10000 | 1000 to 10000
Cn1cc(-c2cnc3[nH]cc(-c4nc(C5(c6ccccc6Cl)CC5)no4)c3c2)cn1 [A119] |  | 1000 to 10000
Cn1cc(-c2cnc3[nH]cc(-c4nnc(C(O)c5ccc(C(=O)NC6CCCCC6)cc5Cl)o4)c3c2)cn1 (centres unmarked) [A129, 3-chloro-N-cyclohexyl-4-(hydroxy-{5-[5-(1-methyl-1H-pyrazol-4-yl)-1H-pyrrolo[2,3-b]pyridin-3-yl]-1,3,4-oxadiazol-2-yl}methyl)benzamide] |  | 1000 to 10000
